Entries after “also recorded” stand apart in the source; their conditions may differ.
Tested on: stage IV-V gametocytes
Assay: Standard membrane feeding assay: stage V gametocytes on day 17
Format: cell-based, Plasmodium falciparum
Conditions: days 14-17; for Percentage of Stage V gametocytes: Fig 7C, untreated 4.75
Procedure: These assays were performed at the Walter and Eliza Hall Institute and at the London School of Hygiene and Tropical Medicine using slightly different approaches which are described in the Supplementary Information. […]
Gametocyte culturing and standard membrane feeding assay (London School of Hygiene and Tropical Medicine). P. falciparum NF54 gametocytes were prepared for blood-feeding to mosquitoes according to the method described by 13, with some slight modifications. Briefly, gametocyte cultures seeded at 2% overall parasitaemia and 4% haematocrit were maintained at 37 °C for 17 days with daily media changes.
Gametocyte functional viability was assessed by ex-flagellation assay at day 14 post induction, observed by light microscopy. An. stephensi (SD500 strain) were reared as […]
Gametocyte aliquots from a single NF54 culture, produced as above, were incubated […]
or culture medium only (no -drug control) from day 14 until day 17 when SMFA was carried out. Fresh drug -containing media was provided each day during this exposure.
Pots of 70 -80 two- to five-day old female An. stephensi mosquitoes were allowed to feed on 500 µL of the respective culture+drug mixture, presented to each pot in a pre - heated 3D -printed water channel membrane feeder 15, until fully fed. Mosquitoes were placed in an incubator at standard conditions and midguts dissected in 0.25% mercurochrome stain for oocyst counts by light microscopy 7-8 days post-feed. […]

CC(C)(Nc1ccc(Cl)c(S(=O)(=O)N2CCOCC2)c1)C(=O)Nc1ccc(F)c(Cl)c1 [W-991]
Percentage of Stage V gametocytes (W-991 1 nM): 5% | Percentage of Stage V gametocytes (W-991 50 nM): 5.3% | Percentage of Stage V gametocytes (W-991 100 nM): 5% | effect on gametocyte development (W-991 1, 50, 100 nM): no defect in gametocyte development; also recorded: no impact
